Reference: article PMC12419465, “Photoresponsive molecular tweezers modulate Taspase 1 activity” (RSC Chemical Biology, 2025)
Like-named read-outs stand apart in the source and are kept apart here.

What was measured:
[1] = Photoisomerization: photostationary states by 1H NMR, switching cycles by UV-vis; assay type: physicochemical
Description: Tweezer constructs were synthesized as an E/Z mixture, with a strong preference for the thermodynamically stable E isomer. For photoisomerization, UV-vis spectra of TWAAP and TWAB (50 μM in water) were recorded in their initial state. The constructs were then isomerized to the Z isomer with UV light (λ = 365 nm, 1 min) and back to the E isomer with green light (λ = 520 nm, 5 min). Two light sources were used: UV LED HighPower-LED with 3 W of λ = 365 nm (LED Engin Inc., San Jose, California, US) and a LSC-G HighPower-LED with 3 W of λ = 520 nm (Cree Inc., Durham, North Carolina, US). UV-vis spectroscopy was routinely employed to analyze the tweezer constructs, serving as the method of choice to monitor configurational integrity after multiple switching cycles. More than 10 switching cycles were performed without any loss of configurational integrity. The UV-vis spectra were recorded with a JASCO V-650 double-beam spectrophotometer (JASCO).
The photophysical properties of AAP tweezers TWAAP0-4 as well as those of AZO tweezers TWAB1-2 were consistent with previous reports on these photoswitches. […] The two isomers are easily distinguished by the significant difference in their absorption bands (Fig. 2 and Fig. S4a, b). […] Irradiation with green light further increases the concentration of the E isomer, as confirmed by both UV/vis and NMR spectra. The switching process can be repeated for over 10 cycles without loss of configurational integrity or photodegradation of the tweezer. […] (Fig. 2 and Table S1).
Supplementary Table S1. Photostationary states (PSSE→Z and PSSZ→E) and half-life of Z isomers of
respectively. n.d., not determinable.
TW construct PSSE→Z [%] PSSZ→E [%] […]

wildtype Taspase 1 = molecular target: T1, wildtype Taspase 1 (Homo sapiens, UniProt Q9H6P5); assay: Recombinant cleavage assay with GST-MLL2700–2850-GFP-His substrate; assay type: biochemical; details: for IC50: ligand conc. 10 - 100 µM, 200 nM Taspase 1, 5 µM substrate, n = 3, read-out: IC50 TW (recombinant cleavage, full-length protein)
T1 sequence (Q9H6P5 1-233 limits assumed): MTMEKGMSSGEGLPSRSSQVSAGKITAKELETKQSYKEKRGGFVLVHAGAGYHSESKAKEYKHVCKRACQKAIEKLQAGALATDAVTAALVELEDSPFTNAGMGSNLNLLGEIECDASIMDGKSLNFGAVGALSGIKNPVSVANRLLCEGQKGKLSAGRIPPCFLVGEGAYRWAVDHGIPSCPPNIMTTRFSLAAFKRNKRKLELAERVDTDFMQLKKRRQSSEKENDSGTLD
T1 sequence (Q9H6P5 234-420 limits assumed): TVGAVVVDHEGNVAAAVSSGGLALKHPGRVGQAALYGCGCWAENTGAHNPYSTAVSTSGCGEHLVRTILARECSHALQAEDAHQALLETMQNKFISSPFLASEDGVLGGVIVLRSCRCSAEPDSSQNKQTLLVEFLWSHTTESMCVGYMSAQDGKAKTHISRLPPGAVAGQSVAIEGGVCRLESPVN
Description: The recombinant cleavage assay employing the recombinant fusion protein GST-MLL2700–2850-GFP-His, which contains the CS2 cleavage site of the Mixed-lineage leukemia (MLL) protein as a substrate for Taspase 1, was performed as described.[9,10]
Given that Taspase 1's active site is positioned directly at the base of the loop harboring the bipartite NLS (Fig. 1A, and Fig. S1), it is reasonable to expect that our photoswitchable tweezer constructs, which recognize this signal, might also influence proteolytic activity - similar to the inhibition observed with our “first-generation” multivalent ligands.[10] In principle the presence of a sterically demanding artificial ligand may hinder or even completely block substrate binding and subsequent cleavage. To assess this, we employed a well-established in vitro cleavage assay using a recombinant, truncated fusion protein harboring the second cleavage site (CS2) of the Mixed Lineage Leukemia 1 (MLL1) protein, a bona fide Taspase 1 substrate.[39] In this assay, the cleaved and uncleaved substrate fractions of the GST-MLL2700–2850-GFP-His substrate were separated on a Coomassie-stained gel, and signal intensities of the different cleavage bands were quantified (Fig. 7, Fig. S8, and Fig. S9). The addition of recombinant, proteolytically active Taspase 1 (200 nM) led to efficient substrate cleavage, which was inhibited by all photoswitchable tweezer constructs in a concentration-dependent manner. IC50 values for the full series of switchable tweezer constructs ranged from 20 to 50 μM, with measurements taken separately for both E and Z isomers Fig. (S9).
Fig. 7 Switchable tweezer constructs interfere with Taspase 1 proteolytic activity. Cleavage assay utilizing the cleavage site CS2 from the natural substrate MLL (GST-MLL2700–2850-GFP-His) and active wildtype Taspase 1. Inhibition of proteolysis was evaluated by the relative amount of uncleaved substrate. Briefly, 5 μM recombinant substrate were incubated with 200 nM wildtype Taspase 1-His and increasing concentrations of TWAAP0-4 (10 - 100 μM), pre-irradiated with either UV light (365 nm, violet), or green light (520 nm, green), or solvent only. Proteolytic activity in solvent-treated samples was set to 100%, and data from TWAAP-treated samples were normalized accordingly. IC50 values were determined by densitometric quantification of the cleavage bands from the gels shown in Fig. S9, followed by nonlinear curve fitting. These values were also used to generate the summary bar plots shown on the right. Data are shown as the mean ± SD from three independent experiments. Composed with https://BioRender.com.
Figure S8. Photoswitchable TWAAP constructs interfere with Taspase 1’s proteolytic activity.
Cleavage assay utilizing the cleavage site CS2 from the natural substrate MLL (GST -MLL2700-2850-GFP-His, 70 kDa) and active wildtype Taspase 1. Inhibition of proteolysis was evaluated by the relative amount of uncleaved in relation to cleaved substrate (50 kDa and 20 kDa, respectively). Briefly, 5 µM recombinant substrate were incubated with 200 nM wildtype Taspase 1-His and increasing concentrations (10 - 100 µM) of indicated TWAAP irradiated with UV (365 nm, left gel panels) or green light (520 nm, right gel panels). Solvent-treated samples (referred to as untreated, un.) served as reference, and as additional controls, Taspase 1 (-T) was omitted or only Taspase 1 (TASP1) was applied. Representative images of three independent experiments are shown. Composed with […]
Figure S9. Photoswitchable TWAAB constructs interfere with Taspase 1’s proteolytic activity. Cleavage assay utilizing the cleavage site CS2 from the natural substrate MLL (GST -MLL2700-2850-GFP-His, 70 kDa) and active wildtype Taspase 1. Inhibition of proteolysis was evaluated by the relative amount of uncleaved in relation to cleaved substrate (50 kDa and 20 kDa, respectively).
Briefly, 5 µM recombinant substrate were incubated with 200 nM wildtype Taspase 1-His and […]

O=P(O)(O)Oc1c2c(c(OP(=O)(O)OCCn3cc(COCc4ccc(N=Nc5ccc(COCc6cn(CCOP(=O)(O)Oc7c8c(c(OP(=O)(O)O)c9c7C7CC9c9cc%10c(cc97)C7CC%10c9ccccc97)C7CC8c8cc9c(cc87)C7CC9c8ccccc87)nn6)cc5)cc4)nn3)c3c1C1CC3c3cc4c(cc31)C1CC4c3ccccc31)C1CC2c2cc3c(cc21)C1CC3c2ccccc21 [TWAB2]
PSS E→Z, photostationary state ([1]; UV 365 nm): 59% | PSS Z→E, photostationary state ([1]; green light 520 nm): 56% | IC50 (wildtype Taspase 1; E isomer): 22.3 µM | IC50 (wildtype Taspase 1; Z isomer): 24.9 µM | Difference in inhibitory activity between E and Z isomers (times greater potency of E isomer) (wildtype Taspase 1; particularly at 50 μM): no difference
